Reference: patent publication US5234907A, “Synthetic vasoactive intestinal peptide analogs” (Hoffmann-La Roche Inc., priority 1991, dated 1993)
*1 amine or outer side, *2 acyl side, *3 side chain or, on linkers, in order; H or OH if unused. [ ]: non-standard residue; d: D form. Cys(Acm) = CC(=O)NCSC[C@H](N[*:1])C(=O)[*:2]; NMeA = CN[C@@H](C)C(=O)O; Nle = CCCC[C@H](N)C(=O)O

Experiments:
[1] = test system: guinea pig tracheal smooth muscle; assay: Tracheal relaxant activity of VIP analogs on isolated guinea pig tracheal rings; type: cell-based; details: cumulative concentration response; responses as % of maximum response to VIP (10^-6 M=100%); at least three tissues pooled; linear regression
Method: The relaxant activity of the VIP analogs was studied in a model utilizing guinea pig trachea. [Wasserman, M. A. et al., in Vasoactive Intestinal Peptide, S. I. Said, ed., Raven Press, N.Y. 1982, pp 177-184]; All tissues were taken from male albino guinea pig weighing 400-600 g, anesthesized with urethane (2 g/kg, i.p.). After exanguination, the trachea were removed and divided into four ring segments (3 mm length). Each ring was suspended by 30 gauge stainless steel wires in a 10 mL jacketed tissue bath and attached via 4-0 silk thread to a Grass force displacement transducer (model FT03C, Grass Instruments Co., Quincy, Ma), for isometric recording of tension. The smooth muscle was bathed in modified Krebs solution of the following composition: NaCl, 120 mM; KCl, 4.7 mM; CaCl2, 2.5 mM; MgSO.4 7H2 O, 1.2 mM; NaHCO3, 25 mM; K2 HPO4 monobasic, 1.2 mM; and dextrose, 10 mM. Tissue baths were maintained at 37° C. and constantly bubbled with 95% O2 and 5% CO2. Responses were recorded on an 8 channel and a 4 channel Hewlett-Packard (model 7702B and 7754A, respectively) recorder (Hewlett-Packard, Paramus, N.J.). […] Frequent readjustments of tension were required during the 60 minute stabilization period which followed. Tissues were rinsed at 15 minute intervals.
Cumulative concentration response curves were obtained for each tissue by successive […] increases in the bath concentration of VIP or VIP analogs according to the method of VanRossum [Arch. Int. Pharmacodyn., 143, 299-330 (1963)]. Only one cumulative dose response curve was obtained on a single tissue. To minimize variability between tissues, relaxant responses were expressed as a percentage of the maximum response obtained to VIP (10^-6 M=100%) added at the end of each concentration response experiment. Responses obtained from at least three tissues were pooled and EC50 values were determined by linear regression.

[2] = test system: guinea pigs; assay: In vivo bronchodilator activity by tracheal instillation against histamine-induced bronchoconstriction; design: species or system guinea pig; details: 100 μl, anesthetized male Hartley guinea pigs, histamine challenge 50 μg/kg i.v., inhibition of tracheal pressure increase
Method: The in vivo bronchodilator activity of VIP analogs in guinea pigs was assessed by the tracheal instillation route of administration. This technique utilized male guinea pigs (Hartley strain, Charles River) weighing 400-600 g. Animals were anesthetized with urethane (2 g/kg) intraperitoneally and a polyethylene cannula was inserted into the jugular vein for intravenous drug administration.
The animals were tracheotomized and dosing solutions of distilled water or test compound dissolved in distilled water were administered into the trachea, approximately three-quarter the distance to the carina with a pipette. The concentration of the dosing solution was adjusted to deliver a constant volume of 100 μl. The animals were placed supine for one minute to aid drug delivery to the lung. One minute later, spontaneous breathing was arrested with succinylcholine chloride (1.2 mg/kg) administered intravenously, and the animals were ventilized with a Harvard Model 680 small animal respirator set at 40 breaths/min and 4.0 cm^3 stoke volume. The animals were challenged with a maximal constrictory dose of histamine (50 μg/kg, i.v.) and tracheal pressure (cm of water) was recorded from a Statham pressure transducer (P 32 AA).
The change in tracheal pressure was averaged for at least 3 control and 3 drug-treated animals and percent inhibition was calculated. The relative potency of compounds administered by the instillation route was determined by administering various doses of test compound and calculating the median inhibitory dose (ID50 value). The ID50 was determined from log dose-reasons curves generated by at least 3 doses that caused inhibitory effects between 10% and 90%. The correlation coefficient for the regression line of each antagonist was always greater than 0.95.
For determination of the time course of inhibition for various compounds, the time between administration of compound and challenge with histamine was varied. The time course of activity was calculated as the time when inhibition decreased to 40%.

| Substance | EC50 [1] [nM] | Bronchodilator activity in guinea pigs, ED50 [2] [µg] |
| --- | --- | --- |
| Ac--[Lys^12, Nle^17, Ala^19, Val^26, Thr^28, Ala^29-31 ]--VIP (Ac-HSDAVFTDNYTKLRKQ[Nle]AAKKYLNSVLTAAA-NH2; SMILES CCCC[C@H](NC(=O)[C@H](CCC(N)=O)NC(=O)[C@H](CCCCN)NC(=O)[C@H](CCCNC(=N)N)NC(=O)[C@H](CC(C)C)NC(=O)[C@H](CCCCN)NC(=O)[C@@H](NC(=O)[C@H](Cc1ccc(O)cc1)NC(=O)[C@H](CC(N)=O)NC(=O)[C@H](CC(=O)O)NC(=O)[C@@H](NC(=O)[C@H](Cc1ccccc1)NC(=O)[C@@H](NC(=O)[C@H](C)NC(=O)[C@H](CC(=O)O)NC(=O)[C@H](CO)NC(=O)[C@H](Cc1c[nH]cn1)NC(C)=O)C(C)C)[C@@H](C)O)[C@@H](C)O)C(=O)N[C@@H](C)C(=O)N[C@@H](C)C(=O)N[C@@H](CCCCN)C(=O)N[C@@H](CCCCN)C(=O)N[C@@H](Cc1ccc(O)cc1)C(=O)N[C@@H](CC(C)C)C(=O)N[C@@H](CC(N)=O)C(=O)N[C@@H](CO)C(=O)N[C@H](C(=O)N[C@@H](CC(C)C)C(=O)N[C@H](C(=O)N[C@@H](C)C(=O)N[C@@H](C)C(=O)N[C@@H](C)C(N)=O)[C@@H](C)O)C(C)C) [Ac--(SEQ ID NO: 10)--NH2] | 0.3 | 0.82 |
| Ac--[Ala^2, Glu^8, Lys^12, Nle^17, Ala^19, Val^26, Thr^28, Ala^29-31 ]--VIP (Ac-HADAVFTENYTKLRKQ[Nle]AAKKYLNSVLTAAA-NH2; SMILES CCCC[C@H](NC(=O)[C@H](CCC(N)=O)NC(=O)[C@H](CCCCN)NC(=O)[C@H](CCCNC(=N)N)NC(=O)[C@H](CC(C)C)NC(=O)[C@H](CCCCN)NC(=O)[C@@H](NC(=O)[C@H](Cc1ccc(O)cc1)NC(=O)[C@H](CC(N)=O)NC(=O)[C@H](CCC(=O)O)NC(=O)[C@@H](NC(=O)[C@H](Cc1ccccc1)NC(=O)[C@@H](NC(=O)[C@H](C)NC(=O)[C@H](CC(=O)O)NC(=O)[C@H](C)NC(=O)[C@H](Cc1c[nH]cn1)NC(C)=O)C(C)C)[C@@H](C)O)[C@@H](C)O)C(=O)N[C@@H](C)C(=O)N[C@@H](C)C(=O)N[C@@H](CCCCN)C(=O)N[C@@H](CCCCN)C(=O)N[C@@H](Cc1ccc(O)cc1)C(=O)N[C@@H](CC(C)C)C(=O)N[C@@H](CC(N)=O)C(=O)N[C@@H](CO)C(=O)N[C@H](C(=O)N[C@@H](CC(C)C)C(=O)N[C@H](C(=O)N[C@@H](C)C(=O)N[C@@H](C)C(=O)N[C@@H](C)C(N)=O)[C@@H](C)O)C(C)C) [Ac--(SEQ ID NO: 19)--NH2] | 0.23 | 0.47 |
| Ac--[N--Me--Ala^1, Lys^12, Nle^17, Ala^19, ^26, Thr^28 ]--VIP (Ac-[NMeA]SDAVFTDNYTKLRKQ[Nle]AAKKYLNSVLT-NH2; SMILES CCCC[C@H](NC(=O)[C@H](CCC(N)=O)NC(=O)[C@H](CCCCN)NC(=O)[C@H](CCCNC(=N)N)NC(=O)[C@H](CC(C)C)NC(=O)[C@H](CCCCN)NC(=O)[C@@H](NC(=O)[C@H](Cc1ccc(O)cc1)NC(=O)[C@H](CC(N)=O)NC(=O)[C@H](CC(=O)O)NC(=O)[C@@H](NC(=O)[C@H](Cc1ccccc1)NC(=O)[C@@H](NC(=O)[C@H](C)NC(=O)[C@H](CC(=O)O)NC(=O)[C@H](CO)NC(=O)[C@H](C)N(C)C(C)=O)C(C)C)[C@@H](C)O)[C@@H](C)O)C(=O)N[C@@H](C)C(=O)N[C@@H](C)C(=O)N[C@@H](CCCCN)C(=O)N[C@@H](CCCCN)C(=O)N[C@@H](Cc1ccc(O)cc1)C(=O)N[C@@H](CC(C)C)C(=O)N[C@@H](CC(N)=O)C(=O)N[C@@H](CO)C(=O)N[C@H](C(=O)N[C@@H](CC(C)C)C(=O)N[C@H](C(N)=O)[C@@H](C)O)C(C)C) [Ac--(SEQ ID NO: 91)--NH2, residue before ^26 lost in print, probably Val^26] | 2.8 | 1.5 |
| Ac--[Lys^12, Nle^17, Ala^19, Ala^25, Leu^26, Lys^27,28, Ala^29-31 ]--VIP (Ac-HSDAVFTDNYTKLRKQ[Nle]AAKKYLNALKKAAA-NH2; SMILES CCCC[C@H](NC(=O)[C@H](CCC(N)=O)NC(=O)[C@H](CCCCN)NC(=O)[C@H](CCCNC(=N)N)NC(=O)[C@H](CC(C)C)NC(=O)[C@H](CCCCN)NC(=O)[C@@H](NC(=O)[C@H](Cc1ccc(O)cc1)NC(=O)[C@H](CC(N)=O)NC(=O)[C@H](CC(=O)O)NC(=O)[C@@H](NC(=O)[C@H](Cc1ccccc1)NC(=O)[C@@H](NC(=O)[C@H](C)NC(=O)[C@H](CC(=O)O)NC(=O)[C@H](CO)NC(=O)[C@H](Cc1c[nH]cn1)NC(C)=O)C(C)C)[C@@H](C)O)[C@@H](C)O)C(=O)N[C@@H](C)C(=O)N[C@@H](C)C(=O)N[C@@H](CCCCN)C(=O)N[C@@H](CCCCN)C(=O)N[C@@H](Cc1ccc(O)cc1)C(=O)N[C@@H](CC(C)C)C(=O)N[C@@H](CC(N)=O)C(=O)N[C@@H](C)C(=O)N[C@@H](CC(C)C)C(=O)N[C@@H](CCCCN)C(=O)N[C@@H](CCCCN)C(=O)N[C@@H](C)C(=O)N[C@@H](C)C(=O)N[C@@H](C)C(N)=O) [Ac--(SEQ ID NO: 22)--NH2] | 0.24 | 0.046 |
| Ac--[Lys^12, Nle^17, Ala^19, Val^26, Thr^28, Gly^29, Lys^30 ]--VIP (Ac-HSDAVFTDNYTKLRKQ[Nle]AAKKYLNSVLTGK-NH2; SMILES CCCC[C@H](NC(=O)[C@H](CCC(N)=O)NC(=O)[C@H](CCCCN)NC(=O)[C@H](CCCNC(=N)N)NC(=O)[C@H](CC(C)C)NC(=O)[C@H](CCCCN)NC(=O)[C@@H](NC(=O)[C@H](Cc1ccc(O)cc1)NC(=O)[C@H](CC(N)=O)NC(=O)[C@H](CC(=O)O)NC(=O)[C@@H](NC(=O)[C@H](Cc1ccccc1)NC(=O)[C@@H](NC(=O)[C@H](C)NC(=O)[C@H](CC(=O)O)NC(=O)[C@H](CO)NC(=O)[C@H](Cc1c[nH]cn1)NC(C)=O)C(C)C)[C@@H](C)O)[C@@H](C)O)C(=O)N[C@@H](C)C(=O)N[C@@H](C)C(=O)N[C@@H](CCCCN)C(=O)N[C@@H](CCCCN)C(=O)N[C@@H](Cc1ccc(O)cc1)C(=O)N[C@@H](CC(C)C)C(=O)N[C@@H](CC(N)=O)C(=O)N[C@@H](CO)C(=O)N[C@H](C(=O)N[C@@H](CC(C)C)C(=O)N[C@H](C(=O)NCC(=O)N[C@@H](CCCCN)C(N)=O)[C@@H](C)O)C(C)C) [Ac--(SEQ ID NO: 11)--NH2] | 0.58 | 0.58 |
| Ac--[Glu^8, Lys^12, Nle^17, Val^26, Thr^28, Gly^29,30, Cys(Acm)^31 ]--VIP (Ac-HSDAVFTENYTKLRKQ[Nle]AVKKYLNSVLTGG[Cys(Acm)]-NH2; SMILES CCCC[C@H](NC(=O)[C@H](CCC(N)=O)NC(=O)[C@H](CCCCN)NC(=O)[C@H](CCCNC(=N)N)NC(=O)[C@H](CC(C)C)NC(=O)[C@H](CCCCN)NC(=O)[C@@H](NC(=O)[C@H](Cc1ccc(O)cc1)NC(=O)[C@H](CC(N)=O)NC(=O)[C@H](CCC(=O)O)NC(=O)[C@@H](NC(=O)[C@H](Cc1ccccc1)NC(=O)[C@@H](NC(=O)[C@H](C)NC(=O)[C@H](CC(=O)O)NC(=O)[C@H](CO)NC(=O)[C@H](Cc1c[nH]cn1)NC(C)=O)C(C)C)[C@@H](C)O)[C@@H](C)O)C(=O)N[C@@H](C)C(=O)N[C@H](C(=O)N[C@@H](CCCCN)C(=O)N[C@@H](CCCCN)C(=O)N[C@@H](Cc1ccc(O)cc1)C(=O)N[C@@H](CC(C)C)C(=O)N[C@@H](CC(N)=O)C(=O)N[C@@H](CO)C(=O)N[C@H](C(=O)N[C@@H](CC(C)C)C(=O)N[C@H](C(=O)NCC(=O)NCC(=O)N[C@@H](CSCNC(C)=O)C(N)=O)[C@@H](C)O)C(C)C)C(C)C) [Ac--(SEQ ID NO: 85)--NH2] | 0.45 | 2.0 |
